System: NCI-H929 complex spheroids, viability % test/control
Assay: Anticancer human tumor NCI-H929 cell line growth inhibition [RAS];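 also: compound exposure lasted seven days before viability was read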;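 as to viability, T/C: 100% = DMSO vehicle control viability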
Details: for IC50: curve of first compound; for viability, T/C: stronger effect = lower value
Outline: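 Tumour cells grown as complex spheroids with HUVEC endothelial cells and mesenchymal stem cells, treated with RAS pathway inhibitor combinations. Each agent spans half-log steps from near clinical Cmax, or 10 microM where Cmax is unknown.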

[1] = second compound 0.00316 µM, first compound 0.0316 µM
[2] = second compound 0.00316 µM, first compound 0.1 µM
[3] = second compound 0.00316 µM, first compound 0.316 µM
[4] = second compound 0.00316 µM, first compound 1 µM
[5] = second compound 0.00316 µM, first compound 3.16 µM
[6] = second compound 0.00316 µM, first compound 10 µM
[7] = second compound 0.01 µM, first compound 0.0316 µM
[8] = second compound 0.01 µM, first compound 0.1 µM
[9] = second compound 0.01 µM, first compound 0.316 µM
[10] = second compound 0.01 µM, first compound 1 µM
[11] = second compound 0.01 µM, first compound 3.16 µM
[12] = second compound 0.01 µM, first compound 10 µM
[13] = second compound 0.0316 µM, first compound 0.0316 µM
[14] = second compound 0.0316 µM, first compound 0.1 µM
[15] = second compound 0.0316 µM, first compound 0.316 µM
[16] = second compound 0.0316 µM, first compound 1 µM
[17] = second compound 0.0316 µM, first compound 3.16 µM
[18] = second compound 0.0316 µM, first compound 10 µM
[19] = second compound 0.1 µM, first compound 0.0316 µM
[20] = second compound 0.1 µM, first compound 0.1 µM
[21] = second compound 0.1 µM, first compound 0.316 µM
[22] = second compound 0.1 µM, first compound 1 µM
[23] = second compound 0.1 µM, first compound 3.16 µM
[24] = second compound 0.1 µM, first compound 10 µM
[25] = second compound 0.316 µM, first compound 0.0316 µM
[26] = second compound 0.316 µM, first compound 0.1 µM
[27] = second compound 0.316 µM, first compound 0.316 µM
[28] = second compound 0.316 µM, first compound 1 µM
[29] = second compound 0.316 µM, first compound 3.16 µM
[30] = second compound 0.316 µM, first compound 10 µM
[31] = second compound 1 µM, first compound 0.0316 µM
[32] = second compound 1 µM, first compound 0.1 µM
[33] = second compound 1 µM, first compound 0.316 µM
[34] = second compound 1 µM, first compound 1 µM
[35] = second compound 1 µM, first compound 3.16 µM
[36] = second compound 1 µM, first compound 10 µM

## CC1(O)CCCC1n1c(=O)c(C(F)F)cc2cnc(NC3CCN(S(C)(=O)=O)CC3)nc21 (stereo unspecified) + C=CC(=O)N1CCN(c2nc(OCC3CCCN3C)nc3c(F)c(-c4nc(N)cc(C)c4C(F)(F)F)c(Cl)cc23)C(C)C1
Second compound 0.00316 µM
  IC50: 184 nM
Second compound 0.01 µM
  IC50: 190 nM
Second compound 0.0316 µM
  IC50: 189 nM
Second compound 0.1 µM
  IC50: 192 nM
Second compound 0.316 µM
  IC50: 184 nM
Second compound 1 µM
  IC50: 182 nM
[1]
  viability, T/C: 115%
[2]
  viability, T/C: 101%
[3]
  viability, T/C: 4.56%
[4]
  viability, T/C: 8.72%
[5]
  viability, T/C: 2.59%
[6]
  viability, T/C: 0.82%
[7]
  viability, T/C: 112%
[8]
  viability, T/C: 108%
[9]
  viability, T/C: 3.89%
[10]
  viability, T/C: 8.77%
[11]
  viability, T/C: 3.05%
[12]
  viability, T/C: 0.57%
[13]
  viability, T/C: 107%
[14]
  viability, T/C: 107%
[15]
  viability, T/C: 3.77%
[16]
  viability, T/C: 9.13%
[17]
  viability, T/C: 2.62%
[18]
  viability, T/C: 0.19%
[19]
  viability, T/C: 109%
[20]
  viability, T/C: 109%
[21]
  viability, T/C: 4.89%
[22]
  viability, T/C: 8.17%
[23]
  viability, T/C: 2.43%
[24]
  viability, T/C: 0.18%
[25]
  viability, T/C: 113%
[26]
  viability, T/C: 101%
[27]
  viability, T/C: 4.58%
[28]
  viability, T/C: 9.4%
[29]
  viability, T/C: 2.18%
[30]
  viability, T/C: 0.46%
[31]
  viability, T/C: 121%
[32]
  viability, T/C: 99.8%
[33]
  viability, T/C: 4.25%
[34]
  viability, T/C: 7.11%
[35]
  viability, T/C: 2.09%
[36]
  viability, T/C: 0.13%

## CCC(CC)c1cc(NC2CCC(N)C2)n2nccc2n1 (stereo unspecified) + C=CC(=O)N1CCN(c2nc(OCC3CCCN3C)nc3c(F)c(-c4nc(N)cc(C)c4C(F)(F)F)c(Cl)cc23)C(C)C1
Second compound 0.00316 µM
  IC50: 1720 nM
Second compound 0.01 µM
  IC50: 1770 nM
Second compound 0.0316 µM
  IC50: 1750 nM
Second compound 0.1 µM
  IC50: 1760 nM
Second compound 0.316 µM
  IC50: 1770 nM
Second compound 1 µM
  IC50: 1780 nM
[1]
  viability, T/C: 100%
[2]
  viability, T/C: 91.7%
[3]
  viability, T/C: 93.5%
[4]
  viability, T/C: 93.2%
[5]
  viability, T/C: 1.09%
[6]
  viability, T/C: 0.82%
[7]
  viability, T/C: 96.3%
[8]
  viability, T/C: 98.3%
[9]
  viability, T/C: 97.9%
[10]
  viability, T/C: 97.9%
[11]
  viability, T/C: 1.58%
[12]
  viability, T/C: 0.56%
[13]
  viability, T/C: 93.3%
[14]
  viability, T/C: 95.7%
[15]
  viability, T/C: 97.3%
[16]
  viability, T/C: 100%
[17]
  viability, T/C: 1.12%
[18]
  viability, T/C: 0.24%
[19]
  viability, T/C: 95.9%
[20]
  viability, T/C: 96.1%
[21]
  viability, T/C: 99.4%
[22]
  viability, T/C: 99.6%
[23]
  viability, T/C: 0.2%
[24]
  viability, T/C: 0.59%
[25]
  viability, T/C: 98.5%
[26]
  viability, T/C: 99.4%
[27]
  viability, T/C: 94.7%
[28]
  viability, T/C: 101%
[29]
  viability, T/C: 1%
[30]
  viability, T/C: 0.48%
[31]
  viability, T/C: 106%
[32]
  viability, T/C: 104%
[33]
  viability, T/C: 97%
[34]
  viability, T/C: 99.2%
[35]
  viability, T/C: 0.64%
[36]
  viability, T/C: 0.11%

## CCN1CCN(Cc2ccc(Nc3ncc(F)c(-c4cc(F)c5nc(C)n(C(C)C)c5c4)n3)nc2)CC1 + C=CC(=O)N1CCN(c2nc(OCC3CCCN3C)nc3c(F)c(-c4nc(N)cc(C)c4C(F)(F)F)c(Cl)cc23)C(C)C1
Second compound 0.00316 µM
  IC50: > 1000 nM
Second compound 0.01 µM
  IC50: > 1000 nM
Second compound 0.0316 µM
  IC50: > 1000 nM
Second compound 0.1 µM
  IC50: > 1000 nM
Second compound 0.316 µM
  IC50: > 1000 nM
Second compound 1 µM
  IC50: > 1000 nM
Second compound 0.00316 µM, first compound 0.00316 µM
  viability, T/C: 99.6%
Second compound 0.00316 µM, first compound 0.01 µM
  viability, T/C: 97.4%
[1]
  viability, T/C: 108%
[2]
  viability, T/C: 103%
[3]
  viability, T/C: 117%
[4]
  viability, T/C: 107%
Second compound 0.01 µM, first compound 0.00316 µM
  viability, T/C: 100%
Second compound 0.01 µM, first compound 0.01 µM
  viability, T/C: 105%
[7]
  viability, T/C: 105%
[8]
  viability, T/C: 109%
[9]
  viability, T/C: 118%
[10]
  viability, T/C: 115%
Second compound 0.0316 µM, first compound 0.00316 µM
  viability, T/C: 102%
Second compound 0.0316 µM, first compound 0.01 µM
  viability, T/C: 103%
[13]
  viability, T/C: 112%
[14]
  viability, T/C: 109%
[15]
  viability, T/C: 119%
[16]
  viability, T/C: 113%
Second compound 0.1 µM, first compound 0.00316 µM
  viability, T/C: 95.8%
Second compound 0.1 µM, first compound 0.01 µM
  viability, T/C: 105%
[19]
  viability, T/C: 108%
[20]
  viability, T/C: 112%
[21]
  viability, T/C: 119%
[22]
  viability, T/C: 111%
Second compound 0.316 µM, first compound 0.00316 µM
  viability, T/C: 102%
Second compound 0.316 µM, first compound 0.01 µM
  viability, T/C: 105%
[25]
  viability, T/C: 113%
[26]
  viability, T/C: 113%
[27]
  viability, T/C: 119%
[28]
  viability, T/C: 115%
Second compound 1 µM, first compound 0.00316 µM
  viability, T/C: 108%
Second compound 1 µM, first compound 0.01 µM
  viability, T/C: 111%
[31]
  viability, T/C: 112%
[32]
  viability, T/C: 114%
[33]
  viability, T/C: 120%
[34]
  viability, T/C: 101%
